From patent US12016843B2, “Compositions and methods for the treatment of amyotrophic lateral sclerosis, parkinson's disease, parkinson's disease with dementia, dementia with lewy bodies, and multiple system atrophy” (priority 2019, dated 2024)

Columns and labels:
[1] = Drug levels in whole brain homogenate by LC-MS/MS after subcutaneous injection; format: in vivo; details: Sprague Dawley rats, 5 mg/kg subcutaneous, over 36 hours, compared with elamipretide
Description: Sprague Dawley rats were injected subcutaneously with 5 mg/kg of Compound Ia or elamipretide (n=4 per time-point). Animals were sacrificed at the indicated timepoints and transcardial perfusion was performed. Drug levels in whole brain homogenate were determined by LC-MS/MS.

[2] = test system: mitochondrial respiration in brain homogenate from the infarcted area; assay: Mitochondrial respiration (respiratory control ratio) in brain homogenate after endothelin-1 induced ischemic stroke; format: in vivo, Sprague Dawley rats; details: rats, ET-1 middle cerebral artery occlusion, 5 mg/kg sc at 24 and 4 hours prior to ischemia, measured 24 hours after onset
Description: Ischemic stroke was induced in Sprague Dawley rats via middle cerebral artery occlusion with the vasoconstrictive peptide endothelin-1 (ET-1; 240 pmol per injection). Compound Ia was administered to each rat at 24 and 4 hours prior to onset of ischemia via subcutaneous injection at 5 mg/kg. Mitochondrial respiration was measured in brain homogenate excised from the infarcted area 24 hours following the onset of ischemia using high resolution respirometry (OxyGraph 02K). Respiratory control ratio was calculated as complex I supported oxidative phosphorylation divided by Complex I linked leak respiration. Results are illustrated in FIG. 5B, ** p<0.01, one-way ANOVA.

[3] = test system: SOD1 G93A high copy transgenic mice; assay: Neurological scoring (NeuroScore) in SOD1 G93A mouse model of ALS; format: in vivo; details: vs vehicle
Description: Study Design. Three experimental groups of n=20 (10 male, 10 female) SOD1 G93A high copy transgenic mice were dosed daily via intraperitoneal administration of vehicle control; (R)-2-amino-N—((S)-1-(((S)-5-amino-1-(3-benzyl-1,2,4-oxadiazol-5-yl)pentyl)amino)-3-(4-hydroxy-2,6-dimethylphenyl)-1-oxopropan-2-yl)-5-guanidinopentanamide (as its tris-HCl salt-(Ia)) at 0.5 mg/kg; or (R)-2-amino-N—((S)-1-(((S)-5-amino-1-(3-benzyl-1,2,4-oxadiazol-5-yl)pentyl)amino)-3-(4-hydroxy-2,6-dimethylphenyl)-1-oxopropan-2-yl)-5-guanidinopentanamide (as its tris-HCl salt—(Ia)) at 5.0 mg/kg. Animals were dosed beginning at 8 weeks of age and dosing was continued until humane end of life (defined by the inability of animal to right itself from either side within 30 seconds when placed on its side). Experimental endpoints and in-life collections and observations were as follows: • 1. Bodyweight measurement. Daily recording of weight. • 2. Neurological scoring. Weekly NeuroScore, a qualitative assessment of neurological disease progression based upon a five-point grading system. […] The average force in grams of the 3 forepaw and 3 all-paws trials are analyzed with and without normalization to body weight. • 4. […]

Cc1cc(O)cc(C)c1C[C@H](NC(=O)[C@H](N)CCCNC(=N)N)C(=O)N[C@@H](CCCCN)c1nc(Cc2ccccc2)no1.Cl.Cl.Cl [Compound Ia, (R)-2-amino-N—((S)-1-(((S)-5-amino-1-(3-benzyl-1,2,4-oxadiazol-5-yl)pentyl)amino)-3-(4-hydroxy-2,6-dimethylphenyl)-1-oxopropan-2-yl)-5-guanidinopentanamide·3HCl]
brain exposure (drug levels in whole brain homogenate) [1]: higher than that of elamipretide | mitochondrial respiration in brain (respiratory control ratio) [2]: restored mitochondrial respiration in brain | progression of neurological symptom onset (five-point neurological score) ([3]; female SOD1 G93A mice, daily intraperitoneal): no effects | progression of neurological symptom onset (five-point neurological score) ([3]; male SOD1 G93A mice, 5.0 mg/kg daily intraperitoneal from 8 weeks of age, two-way ANOVA): delayed the progression of neurological symptom onset
